Test results from patent US20050233453A1, “6-O-sulfated N-acetylheparosan and hematopoietic stem cell growth auxiliary agent” (SEIKAGAKU CORPORATION, priority 2004, published 2005).

System: plasma
Experiment: Measurement of activated partial thromboplastin time (APTT)
Conditions: test substance concentration of 100 μg/ml, rat plasma
Procedure: Hundred μl of plasma obtained by centrifuging at 1000×g for 10 minutes blood sampled from descending aorta of a rat with 1/10 volume of 3.2% […] and 100 μl of a different concentration of N-desulfated-N-reacetylated heparin or each 6-O-sulfated-N-acetylheparosan (Fraction I derived from Reaction-A, Fraction II derived from Reaction-A, and Reaction-B Product) were placed in a cup for measurement and the whole was kept at 37° C. for 1 minute. Thereafter, 100 μl of Actin (trade name: Mitsubishi Pharma Corporation) kept at 37° C. beforehand was added thereto, followed by maintenance at the temperature for 2 minutes. Then, 100 μl of a 0.02M calcium chloride solution kept at 37° C. was added and a time required for the occurrence of coagulation from this point was measured by means of an automatic blood coagulation-measuring apparatus (KC-10A; manufactured by Amelung).

Substance: N-desulfated-N-reacetylated heparin [reference compound]
- APTT: ≥ 80 s
